Experimental data reported in patent US20240261417A1, “SOS1 DEGRADING AGENT AND PREPARATION METHOD THEREFOR AND APPLICATION THEREOF” (SHANGHAI LEADINGTAC PHARMACEUTICAL CO. LTD., priority 2021, published 2024).

Target: T1, SOS1 protein (Homo sapiens, UniProt Q07889)
T1 sequence (Q07889 1-1333): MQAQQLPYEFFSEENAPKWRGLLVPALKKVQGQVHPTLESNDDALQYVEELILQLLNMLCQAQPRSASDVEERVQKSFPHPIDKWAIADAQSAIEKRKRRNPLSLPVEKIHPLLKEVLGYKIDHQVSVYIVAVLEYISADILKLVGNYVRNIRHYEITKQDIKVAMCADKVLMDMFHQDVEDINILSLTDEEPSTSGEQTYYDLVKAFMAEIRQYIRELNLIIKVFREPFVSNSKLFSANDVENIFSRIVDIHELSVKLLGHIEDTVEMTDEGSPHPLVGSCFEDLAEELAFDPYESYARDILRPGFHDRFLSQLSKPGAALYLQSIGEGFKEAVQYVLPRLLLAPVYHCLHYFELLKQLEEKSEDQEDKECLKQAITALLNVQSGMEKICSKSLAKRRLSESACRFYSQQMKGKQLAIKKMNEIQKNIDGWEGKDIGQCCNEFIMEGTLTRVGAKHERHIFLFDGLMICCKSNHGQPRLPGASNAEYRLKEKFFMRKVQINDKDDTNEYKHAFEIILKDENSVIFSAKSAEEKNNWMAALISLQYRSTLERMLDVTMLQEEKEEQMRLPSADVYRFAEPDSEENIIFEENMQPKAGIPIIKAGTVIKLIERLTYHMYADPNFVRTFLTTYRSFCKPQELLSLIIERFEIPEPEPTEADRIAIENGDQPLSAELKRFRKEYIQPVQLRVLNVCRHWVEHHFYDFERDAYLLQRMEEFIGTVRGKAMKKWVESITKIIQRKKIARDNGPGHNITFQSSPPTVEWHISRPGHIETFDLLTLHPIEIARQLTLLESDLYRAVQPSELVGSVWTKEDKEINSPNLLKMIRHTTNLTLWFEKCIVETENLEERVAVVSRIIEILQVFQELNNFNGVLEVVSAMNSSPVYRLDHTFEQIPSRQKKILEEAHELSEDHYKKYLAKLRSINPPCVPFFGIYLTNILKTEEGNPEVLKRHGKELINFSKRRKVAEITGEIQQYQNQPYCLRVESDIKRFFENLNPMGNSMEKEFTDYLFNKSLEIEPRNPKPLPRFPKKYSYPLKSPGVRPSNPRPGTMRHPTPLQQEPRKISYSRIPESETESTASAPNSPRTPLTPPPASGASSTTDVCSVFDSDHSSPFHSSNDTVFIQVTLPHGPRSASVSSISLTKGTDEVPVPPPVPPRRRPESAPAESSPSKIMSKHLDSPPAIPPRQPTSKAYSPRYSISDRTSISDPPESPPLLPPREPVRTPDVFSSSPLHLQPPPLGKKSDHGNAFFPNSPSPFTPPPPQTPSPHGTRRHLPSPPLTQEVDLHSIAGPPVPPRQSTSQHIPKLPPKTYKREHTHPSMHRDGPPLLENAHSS
Assay: SOS1 degradation assay (Western blot), NCI-H358 cells
Format: cell-based
Set-up: The degradation of SOS1 by the compounds was investigated on KRAS G12C mutant human non-small cell lung cancer cells NCI-H358; host or cells: NCI-H358 (human cancer cell lines)
Conditions: SOS1 degradation, NCI-H358 cells, 24 h, Western blot; for DC50: read-out: NCI-H358 (G12C) DC50; for Dmax: read-out: NCI-H358 (G12C) Dmax
Procedure: The specific procedures were as follows:
0.95 mL of cells were seeded into each well of a 24-well cell culture plate to achieve a cell density of 5×10^5 cells/well; the cell plate was incubated in an incubator at 37° C. with 5% CO2 overnight. Then 50 μL of the compound solution after dilution was added to each of the wells with the corresponding cells, so that the final concentration of the compound was in a range of 0.03-3000 nM. […] After dosing, the cell plate was incubated in an incubator at 37° C. with 5% CO2 for 24 h. […] After the plate was left to stand on ice for 30 min, the protein lysate in each well was transferred to a 1.5 mL centrifuge tube and centrifuged at 15000 g for 20 min at 4° C. The cell lysate supernatant after centrifugation was cryopreserved at −80° C. for testing and was used for determining the degradation level of the SOS1 protein by a WB method. The concentration of total protein in the cell lysate supernatant was determined using the BCA Protein Quantification Kit (Tiangen, PA115-02).
The concentration of total protein in the cell lysate was determined by BCA. The total protein was adjusted to 0.5 μg/μL with PBS and 5× SDS-PAGE protein loading buffer (Beyotime, P0015L), incubated in a water bath at 100° C. for 15 min, incubated in an ice bath on ice for 5 min, centrifuged at 14000 g for 1 min at 4° C., and mixed well as a loading sample for WB. Protein electrophoresis was performed on a precast gel (KeyGEN, KGMGO10W15) with a loading volume of 10 μL (total protein: 5 μg) using a Tris-MOPS-SDS running solution (Adamas, P1598253) at a constant voltage of 120 V for 55 min. After the electrophoresis, the protein on the gel strip was transferred to a PVDF membrane at a constant current of 250 mA for 65 min. After the membrane transfer, the membrane was incubated in 1× QuickBlock blocking buffer (Beyotime, P0235) for 30 min at room temperature. […] The protein map was subjected to gray value analysis by the chemiluminescence imaging system from Clinx. […] Then the degradation rate was calculated by comparing the gray correction value with the gray correction value of the control group. Then nonlinear curve fitting was performed by GraphPad Prism 8 in the logarithmic concentration-inhibition rate to obtain the DC50 and Dmax values of the compounds.

Compound	DC50 [nM]	Dmax [%]
COc1cc2nc(C)nc(N[C@H](C)c3cc(N)cc(C(F)(F)F)c3)c2cc1[C@H]1CC[C@H](C(=O)N2CCN(CCC3CCN(C(=O)c4ccc(Cl)c(N5CCC(=O)NC5=O)c4)CC3)CC2)CC1 [Example 12, 1-(5-(4-(2-(4-((1R,4R)-4-(4-(((R)-1-(3-amino-5-(trifluoromethyl)phenyl)ethyl)amino)-7-methoxy-2-methylquinazolin-6-yl)cyclohexane-1-carbonyl)piperazin-1-yl)ethyl)piperidine-1-carbonyl)-2-chlorophenyl)dihydropyrimidine-2,4(1H,3H)-dione]	1000 to 10000	30 to 50
COc1cc2nc(C)nc(N[C@H](C)c3cc(N)cc(C(F)(F)F)c3)c2cc1[C@H]1CC[C@H](C(=O)N2CCN(CCOC3CCN(C(=O)c4ccc(Cl)c(N5CCC(=O)NC5=O)c4)CC3)CC2)CC1 [Example 30, 1-(5-(4-(2-(4-((1R,4R)-4-(4-(((R)-1-(3-amino-5-(trifluoromethyl)phenyl)ethyl)amino)-7-methoxy-2-methylquinazolin-6-yl)cyclohexane-1-carbonyl)piperazin-1-yl)ethoxy)piperidine-1-carbonyl)-2-chlorophenyl)dihydropyrimidine-2,4(1H,3H)-dione]	1000 to 10000	< 30
COc1cc2nc(C)nc(N[C@H](C)c3cc(N)cc(C(F)(F)F)c3)c2cc1[C@H]1CC[C@H](C(=O)N2CCN(CC3CCC4(CC3)CCN(C(=O)c3cccc(N5CCC(=O)NC5=O)c3)CC4)CC2)CC1 [Example 21, 1-(3-(9-((4-((1R,4R)-4-(4-(((R)-1-(3-amino-5-(trifluoromethyl)phenyl)ethyl)amino)-7-methoxy-2-methylquinazolin-6-yl)cyclohexane-1-carbonyl)piperazin-1-yl)methyl)-3-azaspiro[5.5]undecane-3-carbonyl)phenyl)dihydropyrimidine-2,4(1H,3H)-dione]	1000 to 10000	30 to 50
COc1ccc(C(=O)N2CCC(COCCC3CCN(C(=O)[C@H]4CC[C@H](c5cc6c(N[C@H](C)c7cc(N)cc(C(F)(F)F)c7)nc(C)nc6cn5)CC4)CC3)CC2)cc1N1CCC(=O)NC1=O [Example 36, 1-(5-(4-((2-(1-((1R,4R)-4-(4-(((R)-1-(3-amino-5-(trifluoromethyl)phenyl)ethyl)amino)-2-methylpyrido[3,4-d]pyrimidin-6-yl)cyclohexane-1-carbonyl)piperidin-4-yl)ethoxy)methyl)piperidine-1-carbonyl)-2-methoxyphenyl)dihydropyrimidine-2,4(1H,3H)-dione]	100 to 500	50 to 80
COc1cc2nc(C)nc(N[C@H](C)c3cc(N)cc(C(F)(F)F)c3)c2cc1[C@H]1CC[C@H](C(=O)N(C)CC2CCC3(CC2)CCN(C(=O)c2ccc(Cl)c(N4CCC(=O)NC4=O)c2)CC3)CC1 [Example 9, (1R,4R)-4-(4-(((R)-1-(3-amino-5-(trifluoromethyl)phenyl)ethyl)amino)-7-methoxy-2-methylquinazolin-6-yl)-N-((3-(4-chloro-3-(2,4-dioxotetrahydropyrimidin-1(2H)-yl)benzoyl)-3-azaspiro[5.5]undecane-9-yl)methyl)-N-methylcyclohexane-1-carboxamide]	1000 to 10000	< 30
[2H]C1([2H])CC(OCC2CCN(C(=O)c3ccc(Cl)c(N4CCC(=O)NC4=O)c3)CC2)CC([2H])([2H])N1C(=O)[C@H]1CC[C@H](c2cc3c(N[C@H](C)c4cc(N)cc(C(F)(F)F)c4)nc(C)nc3cc2OC)CC1 [Example 40, 1-(5-(4-(((1-((1R,4R)-4-(4-(((R)-1-(3-amino-5-(trifluoromethyl)phenyl)ethyl)amino)-7-methoxy-2-methylquinazolin-6-yl)cyclohexane-1-carbonyl)piperidin-4-yl-2,2,6,6-d4)oxy)methyl)piperidine-1-carbonyl)-2-chlorophenyl)dihydropyrimidine-2,4(1H,3H)-dione]	1000 to 10000	< 30
CNCc1ccccc1-c1csc([C@@H](C)Nc2nc(C)nc3cc(OC)c([C@H]4CC[C@H](C(=O)N5CCN(CC6CCC7(CC6)CCN(C(=O)c6ccc(F)c(N8CCC(=O)NC8=O)c6)CC7)CC5)CC4)cc23)c1 [Example 74, 1-(2-fluoro-5-(9-((4-((1R,4R)-4-(7-methoxy-2-methyl-4-(((R)-1-(4-(2-((methylamino)methyl)phenyl)thien-2-yl)ethyl)amino)quinazolin-6-yl)cyclohexane-1-carbonyl)piperazin-1-yl)methyl)-3-azaspiro[5.5]undecane-3-carbonyl)phenyl)dihydropyrimidine-2,4(1H,3H)-dione]	< 50	80 to 100
COc1cc2nc(C)nc(N[C@H](C)c3cc(N)cc(C(F)(F)F)c3)c2cc1[C@H]1CC[C@H](C(=O)N2CCC(CCN(C)CC3CCN(C(=O)c4ccc(Cl)c(N5CCC(=O)NC5=O)c4)CC3)CC2)CC1 [Example 25, 1-(5-(4-(((2-(1-((1R,4R)-4-(4-(((R)-1-(3-amino-5-(trifluoromethyl)phenyl)ethyl)amino)-7-methoxy-2-methylquinazolin-6-yl)cyclohexane-1-carbonyl)piperidin-4-yl)ethyl)(methyl)amino)methyl)piperidine-1-carbonyl)-2-chlorophenyl)dihydropyrimidine-2,4(1H,3H)-dione]	1000 to 10000	< 30
COc1cc2nc(C)nc(N[C@H](C)c3cc(N)cc(C(F)(F)F)c3)c2cc1C1CCN(C(=O)C2CCN(CC3CCC4(CC3)CCN(C(=O)c3ccc(Cl)c(N5CCC(=O)NC5=O)c3)CC4)CC2)CC1 [Example 4]	50 to 100	30 to 50
COc1cc2nc(C)nc(N[C@H](C)c3cc(N)cc(C(F)(F)F)c3)c2cc1OC1CCN(C(=O)C2CCN(CC3CCC4(CC3)CCN(C(=O)c3ccc(Cl)c(N5CCC(=O)NC5=O)c3)CC4)CC2)CC1 [Example 5, (R)-1-(5-(9-((4-(4-((4-((1-(3-amino-5-(trifluoromethyl)phenyl)ethyl)amino)-7-methoxy-2-methylquinazolin-6-yl)oxy)piperidine-1-carbonyl)piperidin-1-yl)methyl)-3-azaspiro[5.5]undecane-3-carbonyl)-2-chlorophenyl)dihydropyrimidine-2,4(1H,3H)-dione]	50 to 100	80 to 100
